Structures are written as SMILES.

The experiment has as its target T1, USP25 (USP25-His6, Boston Biochem E-546) (Homo sapiens, UniProt Q9UHP3).
T1 construct: His6; purchased Boston Biochem E-546
T1 sequence (Q9UHP3 1-1055): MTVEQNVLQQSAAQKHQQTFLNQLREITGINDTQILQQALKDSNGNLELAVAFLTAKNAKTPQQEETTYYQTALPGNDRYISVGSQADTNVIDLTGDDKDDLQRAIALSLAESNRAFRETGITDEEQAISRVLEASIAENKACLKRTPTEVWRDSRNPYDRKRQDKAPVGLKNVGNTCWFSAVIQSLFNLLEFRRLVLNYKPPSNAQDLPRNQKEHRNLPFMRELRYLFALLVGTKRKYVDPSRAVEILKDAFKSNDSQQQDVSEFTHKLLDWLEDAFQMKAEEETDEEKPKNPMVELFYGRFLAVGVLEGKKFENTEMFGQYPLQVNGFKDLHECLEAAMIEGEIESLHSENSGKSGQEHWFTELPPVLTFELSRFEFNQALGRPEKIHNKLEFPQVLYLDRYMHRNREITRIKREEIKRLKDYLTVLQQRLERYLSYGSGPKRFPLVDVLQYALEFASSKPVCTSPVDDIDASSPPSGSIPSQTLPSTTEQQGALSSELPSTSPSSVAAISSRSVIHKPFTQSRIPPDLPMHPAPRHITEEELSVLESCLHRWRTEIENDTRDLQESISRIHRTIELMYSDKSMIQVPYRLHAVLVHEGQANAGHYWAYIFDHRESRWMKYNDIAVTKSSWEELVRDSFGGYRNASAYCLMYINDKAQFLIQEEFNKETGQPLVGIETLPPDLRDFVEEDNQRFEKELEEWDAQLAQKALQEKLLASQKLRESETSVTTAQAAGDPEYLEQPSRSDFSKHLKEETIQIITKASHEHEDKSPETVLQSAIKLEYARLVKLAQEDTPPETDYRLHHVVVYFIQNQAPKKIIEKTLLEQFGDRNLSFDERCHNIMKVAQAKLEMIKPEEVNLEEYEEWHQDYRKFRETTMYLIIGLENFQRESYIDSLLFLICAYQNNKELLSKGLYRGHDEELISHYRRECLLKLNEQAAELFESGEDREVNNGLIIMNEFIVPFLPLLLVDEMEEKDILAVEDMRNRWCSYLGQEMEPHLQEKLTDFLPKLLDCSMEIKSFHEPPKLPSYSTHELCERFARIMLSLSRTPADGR
The experiment in a line: Ubiquitin-Rhodamine 110 Assay for USP25 Activity, Example A-2. The conditions noted are these: Ubiquitin-Rhodamine 110 assay, Example A-2; read-out: USP25 A-2 IC50 range. The class given is biochemical. Summed up: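 USP25-His6 (75 pM) was preincubated with compound (10-point, 3-fold series, 25 μM to 1.3 nM) for 30 min in 20 mM Tris-HCl pH 8.0, 3 mM BME, 0.03% BGG, 0.01% Triton X-100. Ub-Rh110 (25 nM, <<Km) was then added for 45 min at room temperature, citric acid-stopped, and fluorescence read at 485/535 nm.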
In the case of `COC[C@@H]1CN(c2ccc3c(c2)OC[C@H](NC(=O)c2sc4nc(C)ccc4c2N)C3)C[C@H]1N` [Example 163, 3-amino-N-[(3R)-7-[(3S,4R)-3-amino-4-(methoxymethyl)pyrrolidin-1-yl]-3,4-dihydro-2H-1-benzopyran-3-yl]-6-methylthieno[2,3-b]pyridine-2-carboxamide], the IC50 (as a rule, the point on the concentration scale where inhibition reaches its midpoint) is 200 to 2000 nM.

As for `Cc1ccc2c(N)c(C(=O)N[C@H]3COc4nc(N5CC6CNCC(C5)C6(F)F)ccc4C3)sc2n1` [Example 113, 3-amino-N-[(3R)-7-{9 9-difluoro-3,7-diazabicyclo[3.3.1]nonan-3-yl}-2H b,3H,4H-pyrano[2,3-b]pyridin-3-yl]-6-methylthieno[2,3-b]pyridine-2-carboxamide], the IC50 was in the range of 200 to 2000 nM. For the compound `Cc1ccc2c(N)c(C(=O)N[C@H]3COc4cc([C@H]5C[C@@H](N)C5)ccc4C3)sc2n1` [Example 123, 3-amino-6-methyl-N-[(3R)-7-[(1s,3S)-3-aminocyclobutyl]-3,4-dihydro-2H-1-benzopyran-3-yl]thieno[2,3-b]pyridine-2-carboxamide], the IC50 was in the range of 200 to 2000 nM.

`Cc1ccc2c(N)c(C(=O)N[C@H]3COc4c(ccc(N5CC6CNCC(C5)O6)c4F)C3)sc2n1` [Example 105, 3-amino-N-[(3R)-8-fluoro-7-{9-oxa-3,7-diazabicyclo[3.3.1]nonan-3-yl}-3,4-dihydro-2H-1-benzopyran-3-yl]-6-methylthieno[2,3-b]pyridine-2-carboxamide]: the IC50 was 1 to 50 nM. In the case of `CO[C@H]1CN(c2cc3c(cc2F)C[C@@H](NC(=O)c2sc4nc(C)ccc4c2N)CO3)C[C@@H]1N` [Example 94, 3-amino-N-[(3R)-7-[(3S,4S)-3-amino-4-methoxypyrrolidin-1-yl]-6-fluoro-3,4-dihydro-2H-1-benzopyran-3-yl]-6-methylthieno[2,3-b]pyridine-2-carboxamide] it was 200 to 2000 nM; in that of `Cc1ccc2c(N)c(C(=O)N[C@H]3COc4cc(N5CC6CNCC(C5)O6)c(C#N)c(F)c4C3)sc2n1` [Example 127, 3-amino-N-[(3R)-6-cyano-5-fluoro-7-{9-oxa-3,7-diazabicyclo[3.3.1]nonan-3-yl}-3,4-dihydro-2H-1-benzopyran-3-yl]-6-methylthieno[2,3-b]pyridine-2-carboxamide], 50 to 200 nM. For the compound `CCO[C@H]1CN(c2ccc3c(c2)OC[C@H](NC(=O)c2sc4nc(C)ccc4c2N)C3)C[C@@H]1N` [Example 115, 3-amino-N-[(3R)-7-[(3S,4S)-3-amino-4-ethoxypyrrolidin-1-yl]-3,4-dihydro-2H-1-benzopyran-3-yl]-6-methylthieno[2,3-b]pyridine-2-carboxamide], the IC50 was in the range of 200 to 2000 nM. Consider `CO[C@H]1CN(c2ccc3c(c2)OC[C@H](NC(=O)c2sc4nc(C)sc4c2N)C3)C[C@@H]1N` [Example 118, 6-amino-N-[(3R)-7-[(3S,4S)-3-amino-4-methoxypyrrolidin-1-yl]-3,4-dihydro-2H-1-benzopyran-3-yl]-2-methylthieno[2,3-d][1,3]thiazole-5-carboxamide], for which the IC50 fell in the range of 200 to 2000 nM.

Take `Cc1nc2sc(C(=O)N[C@H]3COc4cc(N5CC6CCC(C5)N6)c(F)c(F)c4C3)c(N)c2s1` [Example 108, 6-amino-N-[(3R)-7-{3,8-diazabicyclo[3.2.1]octan-3-yl}-5,6-difluoro-3,4-dihydro-2H-1-benzopyran-3-yl]-2-methylthieno[2,3-d][1,3]thiazole-5-carboxamide]: the IC50 is 50 to 200 nM. The result for `CO[C@H]1CN(c2ccc3c(c2)OC[C@H](NC(=O)c2sc4nc(C)cnc4c2N)C3)C[C@H]1N` [Example 148, 7-amino-N-[(3R)-7-[(3R,4S)-3-amino-4-methoxypyrrolidin-1-yl]-3,4-dihydro-2H-1-benzopyran-3-yl]-3-methylthieno[2,3-b]pyrazine-6-carboxamide] reads 200 to 2000 nM; that for `Cc1ccc2c(N)c(C(=O)N[C@H]3CCc4cc(N5CC6CNCC(C5)O6)c(C#N)cc4C3)sc2n1` [Example 109, 3-amino-N-[(2S)-7-cyano-6-{9-oxa-3,7-diazabicyclo[3.3.1]nonan-3-yl}-1,2,3,4-tetrahydronaphthalen-2-yl]-6-methylthieno[2,3-b]pyridine-2-carboxamide], 200 to 2000 nM.
